{
  "source": "patent US10274488B2",
  "about": "“Glycan arrays on PTFE-like aluminum coated glass slides and related methods” (Academia Sinica, priority 2008, dated 2019)",
  "key": {"cellulase from T. viride": {"tested_on": "cellulase from T. viride", "experiment": "Enzymatic hydrolysis on the PTFE-like ACG slide with cellulase from T. viride, MS-TOF readout", "type": "biochemical, Trichoderma viride", "conditions": "reaction on the ACG slide, pH 5", "procedure": "(§1) Enzymatic hydrolysis of the immobilized poly-fluorinated cellobiose 8 (see FIG. 14) was first conducted in situ on the phosphonic acid slide surface. Three commercially available cellulases, Aspergillus niger (A. niger), Trichoderma reesei (T. reesei), and Trichoderma viride (T. viride) were prepared separately at 5 U/mL in a sodium acetate (25 mM) buffer solution (pH 5) and loaded onto the functionalized slide which has been divided into 16 wells using Fast Frame reaction chambers. For comparison, an aliquot of enzyme solution (100 μL) was added to the solution of fluorinated cellobiose (100 μL of 0.5 mM) in eppendorfs to carry out the enzymatic hydrolysis reactions in solution. After the reaction, it was transferred to the empty wells of the same slide. Each well was rinsed separately three times with de-ionized water and the slide was dried again under high vacuum before subjecting to MS-TOF analysis.\n(§2) Under MS-TOF analysis, the clean background baseline allowed calculation of the percentage of hydrolyzed components for each sample. As shown in the MS-TOF results in FIG. 20, percentages of hydrolyzed products are calculated from the peak intensities of each spectrum. According to implementations of experimental data shown in FIG. 20, MS-TOF data of enzymatic hydrolysis of poly-fluorinated cellobiose in solution in FIG. 20A and immobilized on PTFE-like ACG slide in FIG. 20B. The control are the same experimental conditions run without enzymes in (a); (b), (c), and (d) are experimental conditions with the cellulase proteins from A. niger (b), T. reesei (c), and T. viride (d).\n(§3) Cellulase was prepared (5 U/mL in 25 mM pH 5.05 NaOAc buffer solution). Substrate was also dissolved in NaOAc buffer solution (25 mM, pH 5.05) to give 0.5 mM substrate solution. Add 50 μL cellulase solution to 50 μL substrate solution onto the glass slide which was loaded in FAST® Frame multi-slide plate to have a 2.5 U/mL cellulase solution with 0.25 mM substrate. The well of the plate was sealed and the whole assembly was incubated in 37° C. for 18 hours. Put the slide in dry box to remove the water, and then use high vacuum to remove trace water. 100 uL water was used to rinse each well of the FAST® Frame multi-slide plate to solve and remove the salt of the buffer solution. Remove any residual water on the plate by high vacuum and then analyzed the slide by MALDI-TOF Ultra-Flex II."}, "cellulase from A. niger": {"tested_on": "cellulase from A. niger", "experiment": "Enzymatic hydrolysis on the PTFE-like ACG slide with cellulase from A. niger, MS-TOF readout", "type": "biochemical, Aspergillus niger", "conditions": "reaction on the ACG slide", "procedure": "as §1, §2, §3"}, "cellulase from T. reesei": {"tested_on": "cellulase from T. reesei", "experiment": "Enzymatic hydrolysis on the PTFE-like ACG slide with cellulase from T. reesei, MS-TOF readout", "type": "biochemical, Trichoderma reesei", "conditions": "reaction on the ACG slide, pH 5", "procedure": "as §1, §2, §3"}},
  "data": [
    {"smiles": "O=C(NCCCCCO[C@@H]1O[C@H](CO)[C@@H](O[C@@H]2O[C@H](CO)[C@@H](O)[C@H](O)[C@H]2O)[C@H](O)[C@H]1O)OCCCC(F)(F)C(F)(F)C(F)(F)C(F)(F)C(F)(F)C(F)(F)C(F)(F)C(F)(F)F", "note": "[Compound 8, [(4,4,5,5,6,6,7,7,8,8,9,9,10,10,11,11,12,12,12-nonadecafluorododecoxycarbonyl-amino)pentyl] ß-D-cellobioside]", "values": [
      {"measurement": "Biose (un-hydrolyzed cellobiose), percentage of hydrolyzed pattern", "setting": "cellulase from T. viride", "value": 77, "unit": "%"},
      {"measurement": "F-tail, percentage of hydrolyzed pattern", "setting": "cellulase from T. viride", "value": 6, "unit": "%"},
      {"measurement": "Glucose, percentage of hydrolyzed pattern", "setting": "cellulase from T. viride", "value": 17, "unit": "%"},
      {"measurement": "Triose, percentage of hydrolyzed pattern", "setting": "cellulase from T. viride", "value": "0/0%"},
      {"measurement": "Biose (un-hydrolyzed cellobiose), percentage of hydrolyzed pattern", "setting": "cellulase from A. niger; pH 5", "value": 1, "unit": "%"},
      {"measurement": "F-tail, percentage of hydrolyzed pattern", "setting": "cellulase from A. niger; pH 5", "value": "0/0%"},
      {"measurement": "Glucose, percentage of hydrolyzed pattern", "setting": "cellulase from A. niger; pH 5", "value": 0, "unit": "%"},
      {"measurement": "Triose, percentage of hydrolyzed pattern", "setting": "cellulase from A. niger; pH 5", "value": 0, "unit": "%"},
      {"measurement": "Biose (un-hydrolyzed cellobiose), percentage of hydrolyzed pattern", "setting": "cellulase from A. niger; pH 5, listed as cellobiose", "value": 100, "unit": "%"},
      {"measurement": "Biose (un-hydrolyzed cellobiose), percentage of hydrolyzed pattern", "setting": "cellulase from T. reesei", "value": 69, "unit": "%"},
      {"measurement": "F-tail, percentage of hydrolyzed pattern", "setting": "cellulase from T. reesei", "value": 7, "unit": "%"},
      {"measurement": "Glucose, percentage of hydrolyzed pattern", "setting": "cellulase from T. reesei", "value": 25, "unit": "%"},
      {"measurement": "Triose, percentage of hydrolyzed pattern", "setting": "cellulase from T. reesei", "value": "0/0%"}
    ]}
  ]
}
